Data: patent publication US20230241072A1, “ANTHRACYCLINE DERIVATIVES” (ALMAC DISCOVERY LIMITED, priority 2019, published 2023)

Columns and labels:
A549 = experiment: Free payload potency in cell lines (96 h): A549; assay type: cell-based, human; conditions: A549 (Lung)
Method: (§1) The potency of the EDA-PNU159682 derivative (FIG. 1) was tested in a variety of cell lines.

Panc-1 = experiment: Free payload potency in cell lines (96 h): Panc-1; assay type: cell-based; conditions: Panc-1 (Pancreatic)
Method: as §1

ACHN = experiment: Free payload potency in cell lines (96 h): ACHN; assay type: cell-based; conditions: ACHN (Kidney)
Method: as §1

PC-9 = experiment: Free payload potency in cell lines (96 h): PC-9; assay type: cell-based; conditions: PC-9 (Lung)
Method: as §1

Hs746T = experiment: Free payload potency in cell lines (96 h): Hs746T; assay type: cell-based; conditions: Hs746T (Stomach)
Method: as §1

[1] = system: PA-1 31-J-06 (Ovarian ROR1 −/−); experiment: Free payload potency in cell lines (96 h): PA-1 31-J-06; assay type: cell-based, human
Method: as §1

MCF7 = conditions: breast cancer cell line MCF7; cited from earlier work
[2] = system: PA-1 32.35 (Ovarian ROR1 −/−); experiment: Free payload potency in cell lines (96 h): PA-1 32.35; assay type: cell-based, human
Method: as §1

MHH-ES1 = experiment: Free payload potency in cell lines (96 h): MHH-ES1; assay type: cell-based, human; conditions: MHH-ES1 (Ewings sarcoma)
Method: as §1

PA-1 = experiment: Free payload potency in cell lines (96 h): PA-1; assay type: cell-based, human; conditions: PA-1 (Ovarian)
Method: as §1

NCI-N87 = experiment: Free payload potency in cell lines (96 h): NCI-N87; assay type: cell-based; conditions: NCI-N87 (Stomach)
Method: as §1

Mino = experiment: Free payload potency in cell lines (96 h): Mino; assay type: cell-based; conditions: Mino (MCL)
Method: as §1

[3] = Mouse plasma half-life of free payloads (parallel study); assay type: in vitro ADME; conditions: free payload
Method: For both the vc-PAB-DMAE-PNU and vc-PAB-EDA-PNU conjugates liberation of some free payload could be detected as a function of time, with 217 nM PNU159682 and 114 nM of EDA-PNU159682 derivative detected after 120 h respectively. Note, in a parallel study, we calculated the mouse plasma half-lives of the free PNU159682 and EDA-PNU159682 derivatives to be 33 h and 116 h respectively.

DU145 = experiment: Free payload potency in cell lines (96 h): DU145; assay type: cell-based; conditions: DU145 (Prostate)
Method: as §1

A427 = experiment: Free payload potency in cell lines (96 h): A427; assay type: cell-based; conditions: A427 (Lung)
Method: as §1

MDA-468 = experiment: Free payload potency in cell lines (96 h): MDA-468; assay type: cell-based; conditions: MDA-468 (Breast)
Method: as §1

MDA-231 = experiment: Free payload potency in cell lines (96 h): MDA-231; assay type: cell-based; conditions: MDA-231 (Breast)
Method: as §1

Kasumi-2 = experiment: Free payload potency in cell lines (96 h): Kasumi-2; assay type: cell-based, human; conditions: Kasumi-2 (BCL)
Method: as §1

A2780 = conditions: ovarian cell line A2780; cited from earlier work
697 = experiment: Free payload potency in cell lines (96 h): 697; assay type: cell-based, human; conditions: 697 (BCL)
Method: as §1

JeKo-1 = experiment: Free payload potency in cell lines (96 h): JeKo-1; assay type: cell-based; conditions: JeKo-1 (MCL)
Method: as §1

SMILES: COc1cccc2c1C(=O)c1c(O)c3c(c(O)c1C2=O)C[C@@](O)(C(=O)CO)C[C@@H]3O[C@H]1C[C@H]2[C@H](O[C@@H]3[C@@H](OC)OCCN32)[C@H](C)O1 [PNU159682]
- IC50 (A549): 0.013 nM
- IC50 (Panc-1): 0.026 nM
- IC50 (ACHN): 0.0097 nM
- IC50 (PC-9): 0.047 nM
- IC50 (Hs746T): 0.049 nM
- IC50 [1]: 0.0022 nM
- potency for in vitro cell killing (MCF7): pico- to femtomolar range
- IC50 [2]: 0.0014 nM
- IC50 (MHH-ES1): 0.0034 nM
- IC50 (PA-1): 0.0044 nM
- IC50 (NCI-N87): 0.122 nM
- IC50 (Mino): 0.037 nM
- mouse plasma half-life [3]: 33 h
- IC50 (DU145): 0.022 nM
- IC50 (A427): 0.0098 nM
- IC50 (MDA-468): 0.021 nM
- IC50 (MDA-231): 0.011 nM
- IC50 (Kasumi-2): 0.0024 nM
- potency for in vitro cell killing (A2780): pico- to femtomolar range
- IC50 697: 0.008 nM
- IC50 (JeKo-1): 0.044 nM
